PubChem BioAssay AID602356 (Sanford-Burnham Center for Chemical Genomics, 2012)
Where “and” joins values, the source holds several entries; their conditions need not be identical. Identical values can stand only once. Calls of active or inactive are those of the source. How the calls were made is not given here.

Molecular target: Neurotensin receptor type 1 (Homo sapiens) (UniProt P30989)
Assay: neurotensin receptor 1 activation – imaging, image-based, set 3, SAR follow-up (AID 602356)
Conditions: NTR1 image-based agonist assay, cellular imaging

Neurotensin receptor type 1 (Homo sapiens), sequence (P30989 whole entry, looked up): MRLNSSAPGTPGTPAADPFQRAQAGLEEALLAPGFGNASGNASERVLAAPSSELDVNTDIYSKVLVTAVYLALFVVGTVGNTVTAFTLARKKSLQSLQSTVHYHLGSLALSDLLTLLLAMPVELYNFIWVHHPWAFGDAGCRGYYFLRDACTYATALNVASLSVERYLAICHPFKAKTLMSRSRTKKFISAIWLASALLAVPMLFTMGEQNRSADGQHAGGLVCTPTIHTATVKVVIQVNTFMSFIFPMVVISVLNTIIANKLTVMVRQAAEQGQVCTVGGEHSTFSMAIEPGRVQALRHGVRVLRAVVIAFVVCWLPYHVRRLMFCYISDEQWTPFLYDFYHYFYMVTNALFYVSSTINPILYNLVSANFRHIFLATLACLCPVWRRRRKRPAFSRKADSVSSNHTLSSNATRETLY

EC50	Compound
6.82 µM	COc1cc2c3nnc(-c4ccc(C)cc4)c-3cn(Cc3ccc(C)cc3)c2cc1OC
11.2 µM	COc1ccc2c3nnc(-c4ccc(C)cc4)c-3cn(Cc3ccc(F)cc3)c2c1
> 80 µM (inactive)	COc1cc2c3nnc(-c4ccc(F)cc4)c-3cn(Cc3ccc(N(C)C)cc3)c2cc1OC
14.9 µM	COc1cc2nc(C3CCC3)nc(N3CCN(c4ccccc4C)CC3)c2cc1OC
11.1 µM	COc1cc2c3nnc(-c4ccc(F)cc4)c-3cn(Cc3ccc(F)cc3)c2cc1OC
inactive	CCc1nc(N2CCN(c3ccccc3OC)CC2)c2cc(OC)c(OC)cc2n1
> 80 µM (inactive)	COc1ccc(Cn2cc3c(-c4ccc(OC)cc4)nnc-3c3ccccc32)cc1
inactive	COc1cc2c3nnc(-c4ccc(C)cc4)c-3cn(Cc3ccccc3)c2cc1OC
> 80 µM (inactive)	CCn1cc2c(-c3ccc(OC)cc3)nnc-2c2ccccc21
8.11 µM	COc1ccc(Cn2cc3c(-c4ccc(F)cc4)nnc-3c3cc(OC)c(OC)cc32)cc1
8.92 µM	CCOc1ccc(-c2nnc3c4cc(OC)c(OC)cc4n(Cc4ccccc4)cc2-3)cc1
19.8 µM	COc1cc2nc(C3CC3)nc(N3CCN(c4ccccc4Cl)CC3)c2cc1OC
5.79 µM	COc1cc2nc(C3CCCC3)nc(N3CCN(c4ccccc4OC)CC3)c2cc1OC
> 80 µM (inactive)	COc1cccc(OC)c1-c1nc(C(=O)O)cn1-c1ccncc1
4.9 µM	COc1cc2c3nnc(-c4ccc(C)c(C)c4)c-3cn(Cc3ccc(C)cc3)c2cc1OC
inactive	c1ccc(Cn2cc3c(-c4ccccc4)nnc-3c3ccccc32)cc1
inactive	COc1ccc(-c2nnc3c4ccccc4n(CCc4ccccc4)cc2-3)cc1
inactive	COc1cc2nc(C3CC3)nc(N3CCN(C(=O)c4ccccc4)CC3)c2cc1OC
inactive	COc1ccc(-c2nnc3c4ccccc4n(CC4CC4)cc2-3)cc1
inactive	COc1cc2nc(C3CCC3)nc(N3CCN(c4ccccn4)CC3)c2cc1OC
inactive	Cc1ccc(-c2nnc3c4cc5c(cc4n(Cc4ccccc4)cc2-3)OCO5)cc1
> 80 µM (inactive)	COc1ccc(-c2nc(C(=O)N[C@@H](CC(C)C)C(=O)O)cn2-c2ccnc3cc(Cl)ccc23)c(OC)c1
inactive	COc1cc2nc(C3CC3)nc(N3CCN(C(=O)c4ccccc4OC)CC3)c2cc1OC
3.95 µM	COc1cc2c3nnc(-c4ccc(F)cc4)c-3cn(Cc3ccccc3C)c2cc1OC

EC50	Compound
inactive	CC(C)C[C@H](NC(=O)c1cn(-c2ccnc3cc(Cl)ccc23)c(-c2ccccc2)n1)C(=O)O
17.2 µM	COc1cccc(N2CCN(c3nc(C4CCC4)nc4cc(OC)c(OC)cc34)CC2)c1
6.08 µM	CCOc1ccccc1N1CCN(c2nc(C3CC3)nc3cc(OC)c(OC)cc23)CC1
> 80 µM (inactive)	COc1cc2c3nnc(-c4ccc(F)cc4)c-3cn(Cc3cccnc3)c2cc1OC
> 80 µM (inactive)	Clc1ccc(-c2nnc3c4cc5c(cc4n(Cc4ccccc4)cc2-3)OCO5)cc1
inactive	COc1cccc(OC)c1-c1cc(C(=O)NC2(C(=O)O)C3CC4CC(C3)CC2C4)nn1-c1ccnc2cc(Cl)ccc12 (centres undefined)
inactive	COc1cccc(OC)c1-c1nc(C(=O)N[C@@H](CC(C)C)C(=O)O)cn1-c1ccncc1
> 80 µM (inactive)	COc1cc2ncnc(N3CCN(c4ccccc4OC)CC3)c2cc1OC
inactive	COc1ccc(N2CCN(c3nc(C4CCC4)nc4cc(OC)c(OC)cc34)CC2)c(OC)c1
inactive	CCc1ccc(-c2nnc3c4cc(OC)c(OC)cc4n(Cc4ccccc4)cc2-3)cc1
16.6 µM	COc1cc2c3nnc(-c4ccccc4)c-3cn(Cc3ccc(F)cc3)c2cc1OC
9.22 µM	CCc1ccc(-c2nnc3c4cc(OC)c(OC)cc4n(Cc4ccc(F)cc4)cc2-3)cc1
9.24 µM	COc1ccc2c(c1)c1nnc(-c3ccc(F)cc3)c-1cn2Cc1ccccc1
12.2 µM	COc1cc2nc(C3CCC3)nc(N3CCN(c4ccccc4Cl)CC3)c2cc1OC
> 80 µM (inactive)	COc1ccc(-c2nnc3c4cc(OC)c(OC)cc4n(Cc4ccc(F)cc4)cc2-3)cc1
> 80 µM (inactive)	COc1cc2nc(C3CC3)nc(N3CCNCC3)c2cc1OC
4.36 µM and 4.14 µM	COc1cc2c3nnc(-c4ccc(F)cc4)c-3cn(Cc3ccccc3N(C)C)c2cc1OC
9.43 µM	Cc1ccc(-c2nnc3c4cc5c(cc4n(Cc4ccc(F)cc4)cc2-3)OCO5)cc1
> 80 µM (inactive)	COc1cc2nc(-c3ccccc3)nc(N3CCN(c4ccccc4)CC3)c2cc1OC
> 80 µM (inactive)	CCOc1cc2nc(-c3ccc(OC)c(OC)c3)nc(N3CCN(c4ccccc4)CC3)c2cc1OC
> 80 µM (inactive)	COc1cc2c3nnc(-c4ccc(F)cc4)c-3cn(Cc3cccc(N(C)C)c3)c2cc1OC
inactive	COc1cc2nc(C3CC3)nc(N3CCN(C(=O)OC(C)(C)C)CC3)c2cc1OC
> 80 µM (inactive)	CCOc1cc2c(N3CCN(c4ccccc4OC)CC3)nc(-c3ccc(OC)c(OC)c3)nc2cc1OC
inactive	COc1ccccc1N1CCN(c2nc(C3CCC3)nc3cc4c(cc23)OCO4)CC1

EC50	Compound
inactive	COc1ccc(-c2nnc3c4ccccc4n(Cc4ccc(OC(F)(F)F)cc4)cc2-3)cc1
> 80 µM (inactive)	COc1cc2nc(-c3ccccc3)nc(N3CCN(c4ccccc4F)CC3)c2cc1OC
5.49 µM and 8.2 µM	Cc1ccc(Cn2cc3c(-c4ccc(F)cc4)nnc-3c3cc4c(cc32)OCO4)cc1
2.01 µM and 4.14 µM	COc1cccc(OC)c1-c1nc(C(=O)N[C@@H](CC(C)C)C(=O)O)cn1-c1ccnc2cc(Cl)ccc12
> 80 µM (inactive)	CCn1cc2c(-c3ccc(F)cc3)nnc-2c2cc(OC)c(OC)cc21
> 80 µM (inactive)	COc1cc2ncc3c(-c4ccc(F)cc4)n[nH]c3c2cc1OC
> 80 µM (inactive)	CC(C)C[C@H](NC(=O)c1cn(-c2ccncc2)c(-c2ccccc2)n1)C(=O)O
0.966 µM	COc1ccccc1-c1cc(C(=O)N[C@@H](CC(C)C)C(=O)O)nn1-c1ccnc2cc(Cl)ccc12
inactive	COc1ccccc1N1CCN(c2nc(C3CCC3)nc3ccccc23)CC1
inactive	COc1ccc(-c2nnc3c4ccccc4n(Cc4ccc(F)cc4)cc2-3)cc1
inactive	COc1ccc2c(N3CCN(c4ccccc4OC)CC3)nc(C3CCC3)nc2c1
6.34 µM and 6.55 µM	COc1cc2c3nnc(-c4ccc(F)cc4)c-3cn(Cc3cccc(C)c3)c2cc1OC
inactive	COc1ccccc1CN1CCN(c2nc(C3CC3)nc3cc(OC)c(OC)cc23)CC1
7.54 µM	COc1cc2c3nnc(-c4ccc(F)cc4)c-3cn(Cc3ccc(Cl)cc3)c2cc1OC
> 80 µM (inactive)	COc1cc2nc(CCN(C)C)nc(N3CCN(c4ccccc4OC)CC3)c2cc1OC
> 80 µM (inactive)	COc1cccc(OC)c1-c1nc(C(=O)N[C@@H](CC(C)C)C(=O)O)cn1-c1ccc(C)cc1
inactive	COc1cc2nc(C3CCC3)nc(N3CCN(c4c(C)cccc4C)CC3)c2cc1OC
17 µM	COc1ccc(-c2nnc3c4cc(OC)c(OC)cc4n(Cc4ccccc4)cc2-3)cc1
13 µM	CCOc1ccc(-c2nnc3c4cc(OC)c(OC)cc4n(Cc4ccc(C)cc4)cc2-3)cc1
6.4 µM	COc1cc2c3nnc(-c4ccc(C)cc4)c-3cn(Cc3ccc(F)cc3)c2cc1OC
9.23 µM	Cc1cccc(C)c1-c1nc(C(=O)N[C@@H](CC(C)C)C(=O)O)cn1-c1ccnc2cc(Cl)ccc12
2.52 µM	COc1cc2c3nnc(-c4ccc(F)cc4)c-3cn(Cc3ccccc3F)c2cc1OC
> 80 µM (inactive)	COc1cc2nc(C3CC3)nc(N3CCN(S(=O)(=O)c4ccccc4)CC3)c2cc1OC
> 80 µM (inactive)	CCOc1cc2nc(-c3ccc(OC)c(OC)c3)nc(N3CCN(c4ccccc4F)CC3)c2cc1OC

EC50	Compound
inactive	COc1ccc(N2CCN(c3nc(C4CCC4)nc4cc(OC)c(OC)cc34)CC2)cc1
2.31 µM and 4.47 µM	COc1cccc(OC)c1-c1nc(C(=O)N[C@@H](CC(C)C)C(=O)O)cn1-c1cccc2ccccc12
inactive	COc1ccc(-c2nnc3c4ccccc4n(Cc4ccccc4)cc2-3)cc1
> 80 µM (inactive)	COc1cc2nc(C)nc(N3CCN(c4ccccc4OC)CC3)c2cc1OC
7.24 µM and 7.42 µM	COc1cc2c3nnc(-c4ccc(F)cc4)c-3cn(Cc3ccccc3)c2cc1OC
> 80 µM (inactive)	COc1ccccc1-c1nc(C(=O)N[C@@H](CC(C)C)C(=O)O)cn1-c1ccncc1
4.1 µM	COc1ccc2nc(C3CC3)nc(N3CCN(c4ccccc4OC)CC3)c2c1
> 80 µM (inactive)	Cc1ccc(Cn2cc3c(-c4ccc(F)cc4)nnc-3c3ccccc32)cc1
10.9 µM	Fc1ccc(-c2nnc3c4cc5c(cc4n(Cc4ccccc4)cc2-3)OCO5)cc1
1.35 µM	COc1cccc(OC)c1-c1cc(C(=O)N[C@@H](CC(C)C)C(=O)OC(C)(C)C)nn1-c1ccnc2cc(Cl)ccc12
14.2 µM	COc1cc2nc(CC3CC3)nc(N3CCN(c4ccccc4OC)CC3)c2cc1OC
9.41 µM	COc1cccc(OC)c1-c1nc(C(=O)N[C@H](CC(C)C)C(=O)O)cn1-c1ccnc2cc(Cl)ccc12
inactive	COc1cc2nc(CCN3CCN(c4ccccc4OC)CC3)nc(N3CCN(c4ccccc4OC)CC3)c2cc1OC
18.4 µM	COc1cc2c3nnc(-c4ccc(F)cc4)c-3cn(Cc3ccncc3)c2cc1OC
inactive	Cc1ccc(Cn2cc3c(-c4ccc(Cl)cc4)nnc-3c3cc4c(cc32)OCO4)cc1
> 80 µM (inactive)	COc1cc2nc(-c3ccccc3)nc(N3CCN(c4ccc(Cl)cc4)CC3)c2cc1OC
inactive	COc1ccc(-c2nnc3c4ccccc4n(Cc4ccc(Cl)cc4)cc2-3)cc1
13.9 µM	COc1ccc2c(c1)c1nnc(-c3ccc(F)cc3)c-1cn2Cc1ccc(F)cc1
inactive	COc1cc2nc(C3CCC3)nc(N3CCN(c4ccccc4[N+](=O)[O-])CC3)c2cc1OC
inactive	COc1cc2c3nnc(-c4ccc(F)cc4)c-3cn(Cc3ccccn3)c2cc1OC
0.232 µM	COc1cccc(OC)c1-c1cc(C(=O)N[C@@H](CC(C)C)C(=O)O)nn1-c1ccnc2cc(Cl)ccc12
inactive	COc1cc2c3nnc(-c4ccc(F)cc4)c-3cn(CCc3ccccc3)c2cc1OC
